Experimental data from patent US10196401B2, “Spiro-lactam NMDA receptor modulators and uses thereof” (Aptinyx Inc., priority 2016, dated 2019).

Assays:
[1] = Microsomal stability, human; type: in vitro ADME
Description: Microsomal and plasma stability of Compound A was investigated. The following table indicates the percent of Compound A remaining after 60 minutes.
Microsomal and plasma stability of Compound B was investigated. The following table indicates the percent of Compound B remaining after 60 minutes.

[2] = Plasma protein binding, human; type: in vitro ADME; settings: read-out: plasma protein binding (% bound) (converted)
Description: Unbound drug concentration in the brain was also investigated, and plasma protein binding assays were conducted. The following table (% bound) indicates results for Compound A.
Unbound drug concentration in the brain was also investigated, and plasma protein binding assays were conducted. The following table (% bound) indicates results for Compound B.

SD rats = test: Novelty-induced hypophagia (NIH) test; type: in vivo, rat; settings: 1 h before a single 10-min test session
Description: This Example relates to the assessment of the anxiolytic effect of treatment in the stress-induced anxiety model, novelty induced hypophagia. This assay is also sensitive to the rapid acting antidepressants ketamine and GLYX-13 (Li et al., “mTOR-dependent synapse formation underlies the rapid antidepressant effects of NMDA antagonists,” Science 329:959-964, 2010; and Burgdorf et al., 2013). See also Bodnoff et al., “A comparison of the effects of diazepam versus several typical and atypical anti-depressant drugs in an animal model of anxiety,” Psychopharmacology, 97:277-279, 1989.
Testing was conducted as described by (Burgdorf et al., 2013). […] Animals were food deprived overnight before testing, and lab chow was placed in the center chamber of an open field (40×40×20 cm) for 10 min under dim red lighting. Between testing each animal, feces and urine were removed from the apparatus. After NIHI testing, the latency to eat in the animal's home cage was determined as a control to ensure the effect on eating is specific to the novel environment. Animals were videotaped, and latency (sec) for the animal to take the first bite of food was manually scored offline.
A single point per dose group that was 2 or more standard deviations from the mean was considered an outlier and was excluded from the data analysis. […]

NMDAR2A = NMDAR2A (Homo sapiens, UniProt Q12879); test: Potentiation of [3H]MK-801 binding, NMDAR2A; parameters: species or system rat; settings: NMDAR2A binding profile, wild-type
Chain of NMDAR2A (Q12879 23-1464, species assumed, other chains not shown): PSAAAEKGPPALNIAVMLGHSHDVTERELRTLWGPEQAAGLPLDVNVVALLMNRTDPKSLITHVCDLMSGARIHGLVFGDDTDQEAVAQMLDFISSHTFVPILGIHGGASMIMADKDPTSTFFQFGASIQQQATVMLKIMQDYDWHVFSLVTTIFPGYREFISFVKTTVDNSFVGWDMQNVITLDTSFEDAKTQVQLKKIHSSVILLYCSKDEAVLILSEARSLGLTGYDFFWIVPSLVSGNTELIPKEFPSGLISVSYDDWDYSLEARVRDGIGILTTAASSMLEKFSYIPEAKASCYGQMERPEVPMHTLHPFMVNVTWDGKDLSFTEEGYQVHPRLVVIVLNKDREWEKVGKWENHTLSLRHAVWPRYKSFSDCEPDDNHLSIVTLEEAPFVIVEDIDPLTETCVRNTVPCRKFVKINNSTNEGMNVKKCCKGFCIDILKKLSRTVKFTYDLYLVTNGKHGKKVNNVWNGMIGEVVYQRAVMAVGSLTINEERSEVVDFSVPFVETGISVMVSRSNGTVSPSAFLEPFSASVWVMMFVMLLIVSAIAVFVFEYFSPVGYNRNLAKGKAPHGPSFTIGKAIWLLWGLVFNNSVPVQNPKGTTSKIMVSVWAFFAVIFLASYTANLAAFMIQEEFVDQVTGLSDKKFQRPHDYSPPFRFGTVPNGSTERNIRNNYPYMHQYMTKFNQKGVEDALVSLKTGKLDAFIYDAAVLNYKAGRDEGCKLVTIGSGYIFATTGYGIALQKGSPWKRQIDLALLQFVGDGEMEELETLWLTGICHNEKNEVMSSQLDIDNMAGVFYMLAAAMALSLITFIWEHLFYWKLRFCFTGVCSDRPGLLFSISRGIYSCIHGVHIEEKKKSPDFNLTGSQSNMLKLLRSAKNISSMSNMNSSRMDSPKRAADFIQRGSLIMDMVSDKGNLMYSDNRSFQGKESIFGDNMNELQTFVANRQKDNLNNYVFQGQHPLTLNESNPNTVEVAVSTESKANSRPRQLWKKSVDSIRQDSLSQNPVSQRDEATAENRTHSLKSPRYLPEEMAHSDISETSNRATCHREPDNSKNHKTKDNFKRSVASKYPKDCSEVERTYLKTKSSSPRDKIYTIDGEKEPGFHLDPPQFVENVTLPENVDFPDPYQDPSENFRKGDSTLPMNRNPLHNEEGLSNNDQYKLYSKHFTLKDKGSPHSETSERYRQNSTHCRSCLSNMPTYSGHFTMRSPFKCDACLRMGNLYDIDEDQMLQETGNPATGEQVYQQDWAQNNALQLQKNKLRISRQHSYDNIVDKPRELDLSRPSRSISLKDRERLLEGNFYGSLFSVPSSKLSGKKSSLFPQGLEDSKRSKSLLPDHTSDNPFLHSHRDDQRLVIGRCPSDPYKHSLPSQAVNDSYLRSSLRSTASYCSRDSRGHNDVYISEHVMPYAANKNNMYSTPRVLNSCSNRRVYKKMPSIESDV

NMDAR2D = NMDAR2D (Homo sapiens, UniProt O15399+Q05586); test: Potentiation of [3H]MK-801 binding, NMDAR2D; parameters: species or system rat; settings: NMDAR2D binding profile, wild-type
Chain of NMDAR2D (O15399 28-1336, species assumed, other chains not shown): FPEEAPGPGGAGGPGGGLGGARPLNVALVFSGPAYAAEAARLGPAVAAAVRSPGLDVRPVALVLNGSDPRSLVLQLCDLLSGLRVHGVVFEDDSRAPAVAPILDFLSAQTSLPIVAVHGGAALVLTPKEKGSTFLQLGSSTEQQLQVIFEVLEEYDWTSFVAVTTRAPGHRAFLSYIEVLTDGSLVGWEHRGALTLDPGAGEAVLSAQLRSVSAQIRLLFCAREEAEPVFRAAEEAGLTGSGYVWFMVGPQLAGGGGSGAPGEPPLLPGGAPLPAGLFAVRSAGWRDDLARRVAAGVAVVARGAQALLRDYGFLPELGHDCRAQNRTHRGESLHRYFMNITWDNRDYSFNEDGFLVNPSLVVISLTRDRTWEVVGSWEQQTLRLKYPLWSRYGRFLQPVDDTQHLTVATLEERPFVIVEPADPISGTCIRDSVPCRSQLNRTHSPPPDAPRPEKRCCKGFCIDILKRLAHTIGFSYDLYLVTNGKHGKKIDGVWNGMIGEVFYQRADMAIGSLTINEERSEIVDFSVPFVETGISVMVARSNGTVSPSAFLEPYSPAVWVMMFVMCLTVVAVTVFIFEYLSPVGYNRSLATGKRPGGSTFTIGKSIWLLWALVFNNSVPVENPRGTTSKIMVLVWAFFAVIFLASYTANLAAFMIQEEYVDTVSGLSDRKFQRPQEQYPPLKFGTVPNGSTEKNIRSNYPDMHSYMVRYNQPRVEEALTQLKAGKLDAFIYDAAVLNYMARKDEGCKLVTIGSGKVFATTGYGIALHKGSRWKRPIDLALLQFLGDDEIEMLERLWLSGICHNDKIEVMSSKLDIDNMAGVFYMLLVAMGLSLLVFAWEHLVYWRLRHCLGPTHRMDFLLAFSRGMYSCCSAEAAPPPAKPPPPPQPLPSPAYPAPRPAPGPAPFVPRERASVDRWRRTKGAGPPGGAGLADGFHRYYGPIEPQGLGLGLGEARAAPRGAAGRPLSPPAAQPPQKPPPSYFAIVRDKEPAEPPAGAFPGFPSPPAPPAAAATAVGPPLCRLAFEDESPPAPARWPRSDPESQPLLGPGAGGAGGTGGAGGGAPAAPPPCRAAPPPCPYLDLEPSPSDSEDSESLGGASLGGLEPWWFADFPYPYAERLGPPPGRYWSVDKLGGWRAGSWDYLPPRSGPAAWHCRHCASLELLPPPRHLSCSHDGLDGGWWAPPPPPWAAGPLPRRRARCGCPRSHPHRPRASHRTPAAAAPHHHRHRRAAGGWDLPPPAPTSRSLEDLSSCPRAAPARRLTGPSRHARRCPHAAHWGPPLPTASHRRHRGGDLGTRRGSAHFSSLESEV
Description: Assays were conducted as described by Moskal et al., “GLYX-13: a monoclonal antibody-derived peptide that acts as an N-rnethyl-D-aspartate receptor modulator,” Neuropharmacology, 49, 1077-87, 2005. The potentiation of [^3H]MK-801 binding (5 nrM; 22.5 Ci/mmol) to well washed rat cortical membranes (200 μg) was measured under non-equilibrium conditions (15 min @ 25° C.) in the presence of increasing concentrations of Compound A.
Assays were conducted as described above in Example 5, by Moskal et al. (2005).

SMILES | Microsomal stability, percent remaining after 60 minutes [1] | fraction unbound [2] | latency to eat in the NIH test (anxiolytic effect) (SD rats; 10-1000 μg/kg PO) | EC50 (NMDAR2A) | EC50 (NMDAR2D) | latency to eat in the NIH test (anxiolytic effect) (SD rats; 0.0001-1 μg/kg PO)
CC(C)CN1CCC[C@]12CN([C@H](C(N)=O)[C@@H](C)O)C2=O [Compound A, (2S,3R)-3-hydroxy-2-((R)-5-isobutyl-1-oxo-2,5-diazaspiro[3.4]octan-2-yl)butanamide] | 86% | 0.741 | produces an anxiolytic effect | 0.00457 nM | – | –
CC(C)CN1CCC[C@@]12CN([C@H](C(N)=O)[C@@H](C)O)C2=O [Compound B, (2S,3R)-3-hydroxy-2-((S)-5-isobutyl-1-oxo-2,5-diazaspiro[3.4]octan-2-yl)butanamide] | 87% | 0.712 | – | 0.977 nM | 3.98 nM | produces an anxiolytic effect
